From patent US9815842B2, “Pyrazolo pyrimidine derivatives and their use as MALT1 inhibitors” (Novartis AG, priority 2014, dated 2017)
One block for each compound: values may come before it.

Columns and labels:
Human IL2 promoter = Human IL2 promoter reporter gene assay (RGA) in Jurkat cells; format: cell-based; conditions: Jurkat clone K22 290_H23, anti-CD28 mAb + PMA stimulation 5.5 h
Method in brief: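 Transfected Jurkat clone K22 290_H23 cells were pre-incubated with compounds 30 min at 37 °C, then stimulated 5.5 h with anti-CD28 mAb (15E8, 3 μg/ml) plus PMA (1 μg/ml). IL2-promoter reporter activity was read as BriteLitePlus bioluminescence.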

[1] = biological target: cIAP2-MALT1 fusion protein (Homo sapiens, UniProt Q9UDY8); conditions: read-out: NFkappaB reporter gene assay IC50; HEK293 stably expressing cIAP2-MALT1, luciferase, 24 h compound incubation
Description: For the measurement of compound inhibition, 0.25 μl of test compound were mixed with 12.5 μl of enzyme in wells of the 384-well plates, and incubated for 60 minutes at room temperature (22° C.). After that, 12.5 μl of substrate was added, and the enzymatic reaction was allowed to proceed for 60 minutes at room temperature (22° C.). […] The DMSO content was between 0.9 and 1% (v/v). […] The IC50 value was calculated from the plot of percentage inhibition versus inhibitor concentration using non-linear regression analysis software (Origin, OriginLab Corporation, USA). The data were fitted using a 4 Parameter Logistic Model, characterized by the following equation: y=A2+(A1−A2)/(1+(x/IC50)^p) where y is the %-inhibition at the inhibitor concentration, x. A1 is the lowest inhibition value, and A2 the maximum inhibition value.

[2] = biological target: C-domain of MALT1 (amino acids 329-824) (Homo sapiens (Human), UniProt Q9UDY8); assay: MALT1 biochemical assay (fluorescence lifetime enzyme activity assay); conditions: 60 min pre-incubation, 2.5 nM enzyme, 1 μM peptide substrate
Sequence of C-domain of MALT1 (amino acids 329-824) (Q9UDY8 329-824): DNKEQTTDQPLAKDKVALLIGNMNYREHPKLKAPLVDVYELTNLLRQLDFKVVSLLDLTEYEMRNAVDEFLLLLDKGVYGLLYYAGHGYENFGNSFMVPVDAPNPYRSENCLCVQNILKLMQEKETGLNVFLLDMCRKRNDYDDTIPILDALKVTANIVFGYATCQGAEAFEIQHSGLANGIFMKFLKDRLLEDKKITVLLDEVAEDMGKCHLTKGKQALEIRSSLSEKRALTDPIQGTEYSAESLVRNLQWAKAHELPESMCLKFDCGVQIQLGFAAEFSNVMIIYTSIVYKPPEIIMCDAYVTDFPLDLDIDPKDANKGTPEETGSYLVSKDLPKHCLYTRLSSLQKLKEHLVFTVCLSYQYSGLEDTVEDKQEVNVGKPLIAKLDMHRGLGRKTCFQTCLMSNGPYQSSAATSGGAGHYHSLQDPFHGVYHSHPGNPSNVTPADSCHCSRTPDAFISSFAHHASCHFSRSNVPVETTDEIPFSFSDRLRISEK

Sequence of cIAP2-MALT1 fusion protein (Q9UDY8 2-824 limits assumed): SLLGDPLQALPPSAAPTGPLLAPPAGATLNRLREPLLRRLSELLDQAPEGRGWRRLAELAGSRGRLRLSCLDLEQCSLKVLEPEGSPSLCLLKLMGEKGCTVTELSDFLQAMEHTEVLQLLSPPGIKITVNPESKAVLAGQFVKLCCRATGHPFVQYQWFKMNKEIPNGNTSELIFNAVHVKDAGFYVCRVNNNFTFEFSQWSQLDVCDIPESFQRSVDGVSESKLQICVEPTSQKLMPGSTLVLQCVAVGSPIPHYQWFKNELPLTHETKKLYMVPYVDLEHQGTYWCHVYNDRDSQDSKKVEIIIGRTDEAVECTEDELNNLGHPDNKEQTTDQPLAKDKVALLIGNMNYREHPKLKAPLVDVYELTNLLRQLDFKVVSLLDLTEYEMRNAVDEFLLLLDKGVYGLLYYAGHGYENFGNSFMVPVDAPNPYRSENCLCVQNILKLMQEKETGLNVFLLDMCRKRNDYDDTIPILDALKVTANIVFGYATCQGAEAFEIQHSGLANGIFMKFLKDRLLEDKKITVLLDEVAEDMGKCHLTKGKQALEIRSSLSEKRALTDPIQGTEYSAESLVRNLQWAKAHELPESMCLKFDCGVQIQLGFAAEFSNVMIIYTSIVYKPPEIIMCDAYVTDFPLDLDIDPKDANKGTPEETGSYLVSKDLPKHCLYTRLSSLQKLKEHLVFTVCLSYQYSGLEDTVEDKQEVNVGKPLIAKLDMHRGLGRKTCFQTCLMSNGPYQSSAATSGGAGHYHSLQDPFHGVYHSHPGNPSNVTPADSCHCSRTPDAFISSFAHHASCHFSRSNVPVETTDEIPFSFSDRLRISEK

Compound: CO[C@@H](C)c1c(NC(=O)Nc2ccnc(C(F)(F)F)c2)cnc2cc(C)nn12 [Example 6, (S)-1-(7-(1-methoxyethyl)-2-methylpyrazolo[1,5-a]pyrimidin-6-yl)-3-(2-(trifluoromethyl)pyridin-4-yl)urea]
IC50 (Human IL2 promoter): 52 nM | IC50 [1]: 132 nM

Compound: CN1CCOCC1Cc1c(NC(=O)Nc2cnc(-n3nccn3)c(Cl)c2)cnc2cc(Cl)nn12 (centres unmarked) [Example 83, 1-(5-chloro-6-(2h-1,2,3-triazol-2-yl)pyridin-3-yl)-3-(2-chloro-7-((4-methylmorpholin-3-yl)methyl)pyrazolo[1,5-a]pyrimidin-6-yl)urea]
IC50 [1]: 829 nM

Compound: CC(C)c1c(NC(=O)Nc2cc(Cl)c(-n3nccn3)nc2OC2CCN(C)C2)cnc2cc(Cl)nn12 (centres unmarked) [Example 33, 1-(5-chloro-2-((1-methylpyrrolidin-3-yl)oxy)-6-(2H-1,2,3-triazol-2-yl)pyridin-3-yl)-3-(2-chloro-7-isopropylpyrazolo[1,5-a]pyrimidin-6-yl)urea]
IC50 [1]: 408 nM | IC50 [2]: 30 nM

Compound: COc1ncc(NC(=O)Nc2cnc3cc(Cl)nn3c2C2CCC(C)O2)cc1Cl (centres unmarked) [Example 87, 1-(5-chloro-6-methoxypyridin-3-yl)-3-(2-chloro-7-(5-methyltetrahydrofuran-2-yl)pyrazolo[1,5-a]pyrimidin-6-yl)urea]
IC50 [1]: 417 nM

Compound: O=C(Nc1cnc(-n2nccn2)c(Cl)c1)Nc1cnc2cc(Cl)nn2c1C1COCCO1 (centres unmarked) [Example 43, 1-(5-chloro-6-(2H-1,2,3-triazol-2-yl)pyridin-3-yl)-3-(2-chloro-7-(1,4-dioxan-2-yl)pyrazolo[1,5-a]pyrimidin-6-yl)urea]
IC50 [1]: 159 nM

Compound: COc1ncc(NC(=O)Nc2cnc3cc(Cl)nn3c2-c2ccncc2)cc1Cl [Example 69, 1-(5-chloro-6-methoxypyridin-3-yl)-3-(2-chloro-7-(pyridin-4-yl)pyrazolo[1,5-a]pyrimidin-6-yl)urea]
IC50 [1]: 678 nM

Compound: O=C(Nc1cnc(-n2nccn2)c(C(F)(F)F)c1)Nc1cnc2cc(Cl)nn2c1-c1ccco1 [Example 63, 1-(6-(2H-1,2,3-triazol-2-yl)-5-(trifluoromethyl)pyridin-3-yl)-3-(2-chloro-7-(furan-2-yl)pyrazolo[1,5-a]pyrimidin-6-yl)urea]
IC50 [1]: 354 nM

Compound: CN1CCOC(c2c(NC(=O)Nc3cnc(-n4nccn4)c(Cl)c3)cnc3cc(Cl)nn23)C1 (centres unmarked) [Example 116, 1-(5-chloro-6-(2H-1,2,3-triazol-2-yl)pyridin-3-yl)-3-(2-chloro-7-(4-methylmorpholin-2-yl)pyrazolo[1,5-a]pyrimidin-6-yl)urea]
IC50 [1]: 687 nM

Compound: COCC1(c2c(NC(=O)Nc3ccnc(C(F)(F)F)c3)cnc3cc(Cl)nn23)CCC1 [Example 51, 1-(2-chloro-7-(1-(methoxymethyl)cyclobutyl)pyrazolo[1,5-a]pyrimidin-6-yl)-3-(2-(trifluoromethyl)pyridin-4-yl)urea]
IC50 [1]: 195 nM

The next compounds have a lower IC50 [1] than those just listed; values first:

IC50 (Human IL2 promoter): 17 nM | IC50 [1]: 43 nM
Compound: C[C@@H](c1c(NC(=O)Nc2cnc(-n3nccn3)c(Cl)c2)cnc2cc(Cl)nn12)N(C)C [Example 122, (S)-1-(5-chloro-6-(2H-1,2,3-triazol-2-yl)pyridin-3-yl)-3-(2-chloro-7-(1-(dimethylamino)ethyl)pyrazolo[1,5-a]pyrimidin-6-yl)urea]

IC50 [1]: 35 nM
Compound: CC1(c2c(NC(=O)Nc3cnc(-n4nccn4)c(Cl)c3)cnc3cc(Cl)nn23)CC1 [Example 16, 1-(5-chloro-6-(2H-1,2,3-triazol-2-yl)pyridin-3-yl)-3-(2-chloro-7-(1-methylcyclopropyl)pyrazolo[1,5-a]pyrimidin-6-yl)urea]

IC50 (Human IL2 promoter): 109 nM | IC50 [1]: 44 nM
Compound: COc1ncc(NC(=O)Nc2cnc3cc(Cl)nn3c2[C@H](C)OC)cc1Cl [Example 9, (S)-1-(5-chloro-6-methoxypyridin-3-yl)-3-(2-chloro-7-(1-methoxyethyl)pyrazolo[1,5-a]pyrimidin-6-yl)urea]

IC50 (Human IL2 promoter): 59 nM | IC50 [1]: 48 nM
Compound: CCC(C)c1c(NC(=O)Nc2cnc(-n3nccn3)c(Cl)c2)cnc2cc(Cl)nn12 (centres unmarked) [Example 35, 1-(7-(sec-butyl)-2-chloropyrazolo[1,5-a]pyrimidin-6-yl)-3-(5-chloro-6-(2H-1,2,3-triazol-2-yl)pyridin-3-yl)urea]

IC50 (Human IL2 promoter): 94 nM | IC50 [1]: 117 nM
Compound: O=C(Nc1cnc(-n2nccn2)c(C(F)(F)F)c1)Nc1cnc2cc(Cl)nn2c1C1CCCO1 (centres unmarked) [Example 54, 1-(6-(2H-1,2,3-triazol-2-yl)-5-(trifluoromethyl)pyridin-3-yl)-3-(2-chloro-7-(tetrahydrofuran-2-yl)pyrazolo[1,5-a]pyrimidin-6-yl)urea]
